Results reported in patent US4493845A, “Antibiotic AM-3603” (Kitasato Kenkyusho, priority 1980, dated 1985).
≈ marks a conversion by molar mass, not a printed value. Like-named read-outs stand apart in the source and are kept apart here.

Legend:
Type in all cases: cell-based
Piricularia oryzae = assay: microbe, parasite or virus in culture; settings: Glucosepotato agar, 2-3 days
Sclerotinia cinerea = assay: Comparison of anti-phytopathogenic activity, MIC; settings: Glucosepotato agar, 2-3 days
Pellicularia sasakii = assay: Comparison of anti-phytopathogenic activity, MIC
Botrytis cinerea = assay: Comparison of anti-phytopathogenic activity, MIC; settings: Glucosepotato agar, 2-3 days
Alternaria kikuchiana = assay: Comparison of anti-phytopathogenic activity, MIC; settings: Glucosepotato agar, 2-3 days
[1] = B, laboratory stock culture, Glucosepotato agar, 2-3 days
[2] = A, isolate from infected plant, Glucosepotato agar, 2-3 days

| Compound | MIC (Piricularia oryzae; A, isolate from infected plant) [µg/mL] | MIC (Piricularia oryzae; B, laboratory stock culture) [µg/mL] | MIC (Sclerotinia cinerea; Sclerotinia, A, isolate from infected plant) [µg/mL] | MIC (Sclerotinia cinerea; Sclerotinia, B, laboratory stock culture) [µg/mL] | MIC (Pellicularia sasakii) [µg/mL] | MIC (Pellicularia sasakii; [1]) [µg/mL] | MIC (Botrytis cinerea; Botrytis cinerea, A, isolate from infected plant) [µg/mL] | MIC (Botrytis cinerea; Botrytis cinerea, B, laboratory stock culture) [µg/mL] | MIC (Alternaria kikuchiana; Alternaria kikuchiana, A, isolate from infected plant) [µg/mL] | MIC (Alternaria kikuchiana; Alternaria kikuchiana, B, laboratory stock culture) [µg/mL] | MIC (Sclerotinia cinerea; A, isolate from infected plant) [µg/mL] | MIC (Sclerotinia cinerea; B, laboratory stock culture) [µg/mL] | MIC (Pellicularia sasakii; [2]) [µg/mL] | MIC (Botrytis cinerea; A, isolate from infected plant) [µg/mL] | MIC (Botrytis cinerea; B, laboratory stock culture) [µg/mL] | MIC (Alternaria kikuchiana; A, isolate from infected plant) [µg/mL] | MIC (Alternaria kikuchiana; B, laboratory stock culture) [µg/mL] |
| --- | --- | --- | --- | --- | --- | --- | --- | --- | --- | --- | --- | --- | --- | --- | --- | --- | --- |
| CN(CCC(N)CC(=O)NC1C=CC(n2ccc(N)nc2=O)OC1C(=O)O)C(=N)N (stereo not shown) [Blasticidin S] | > 100 | 25 (≈ 59.2 µM) | 50 (≈ 118 µM) | 25 (≈ 59.2 µM) | > 100 | > 100 | 50 (≈ 118 µM) | 100 (≈ 237 µM) | 50 (≈ 118 µM) | 12.5 (≈ 29.6 µM) | – | – | – | – | – | – | – |
| C[C@@H](N)C(=O)N[C@H]1CO[C@H](O)[C@H](N)[C@H]1O [Prumycin] | > 100 | 100 (≈ 456 µM) | – | – | – | > 100 | – | – | – | – | 1.56 (≈ 7.12 µM) | 6.25 (≈ 28.5 µM) | > 100 | 100 (≈ 456 µM) | 50 (≈ 228 µM) | > 100 | 50 (≈ 228 µM) |
| Venturicidin | < 0.03 | < 0.03 | – | – | – | > 25 | – | – | – | – | 0.78 | 0.78 | 1.56 | – | > 25 | – | > 25 |
